Measurements from ChEMBL document CHEMBL1150104, “Isolation and structure identification of an active DNA strand-scission agent, (+)-3,4-di-hydroxy-8,9-methylenedioxypterocarpan” (1995).
Values after ≈ are worked out from the molar mass of the structure shown. Active and inactive are the calls of the source. The rule behind the calls is not given here.

How the values were obtained:
Nucleic Acid [1] = test: Induction of DNA strand scission activity in Escherichia coli pBR322 at 25 ug/mL by electrophoresis; type: nucleic-acid assay
KB = test: Cytotoxicity against human KB cells; type: functional; conditions: read-out: ED50 (the source's name)
Nucleic Acid [2] = test: Induction of DNA strand scission activity in Escherichia coli pBR322 at 0.1 ug/mL by electrophoresis; type: nucleic-acid assay

Activity (Nucleic Acid [1]) | Activity (Nucleic Acid [2]) | Compound | EC50 (KB) [µg/mL]
inactive |  | Oc1ccc2c(c1)OC[C@@H]1c3cc4c(cc3O[C@H]21)OCO4 [(+)-MAACKIAIN] | 5.6 (≈ 19.7 µM)
Active |  | Oc1ccc2c(c1O)OC[C@@H]1c3cc4c(cc3O[C@H]21)OCO4 | 0.9 (≈ 3 µM)
 | Active | BLEOMYCIN SULFATE | 
inactive |  | COc1ccc2c(c1O)OC[C@@H]1c3cc4c(cc3O[C@H]21)OCO4 | 4 (≈ 12.7 µM)
